# No end group written: not given here.
# Key:
# MCF-7 cells = assay: MTT cell viability assay, MCF-7; format: cell-based, human; settings: synthetic peptide 100 µg/ml, 24 h, mean ± SD, n = 3
# Experimental: (§1) CaCO2, HepG2, MCF-7, NCI-H460, SiHa, SW620, and Vero cells were obtained from the American Type Culture Collection (ATCC, Manassas, VA, USA). Cells were cultured in Dulbecco’s Modified Eagle’s Medium (DMEM; PAA, Pasching, Austria), supplemented with 10% (v/v) fetal bovine serum (Gibco, South America), 10 mM HEPES (HyClone, Utah, USA), 2 mM L-glutamine, and 100 U/mL penicillin and 100 µg/mL streptomycin. Cultures were maintained at 37 °C in a humidified atmosphere containing 5% CO₂.
# (§2) The anticancer activity of protein hydrolysates and synthetic peptides against CaCO2, HepG2, MCF-7, NCI-H460, SiHa, SW620, and Vero cells were evaluated using the MTT assay. Cells were seeded into 96-well plates (Nunc™, Roskilde, Denmark) at a density of 2 × 10⁴ cells per well, and allowed to adhere. Following seeding, cells were treated with 100 µg/mL of protein hydrolysates or synthetic peptides for 24 h, while untreated cells served as controls. After 24 h, 20 µL of MTT solution (5 mg/mL; Sigma, St. Louis, MO, USA) was added to each well and incubated for an additional 3 h. The supernatant was then removed, and 100 µL of DMSO was added to each well to dissolve the formazan crystals. Optical density (OD) was measured at 540 nm using a microplate reader (Rayto RT-2100 C, China). Cell viability was calculated using the equation: (OD of treated cells/OD of untreated cells) × 100.
# (§3) The IC50 values were calculated from a fitted semi-log response curve, plotting cell viability percentages against concentration. These values were determined using the AAT-Bioquest IC50 calculator (https://www.aatbio.com/tools/ic50-calculator).
# CaCO2 cells = assay: MTT cell viability assay, CaCO2; format: cell-based, human; settings: synthetic peptide 100 µg/ml, 24 h, mean ± SD, n = 3
# Experimental: as §1, §2, §3
# [1] = DPPH radical scavenging assay; format: physicochemical; settings: peptide 100 µg/ml, 0.1 mM DPPH, 30 min in the dark, room temperature, absorbance 517 nm, mean ± SD, n = 3
# Experimental: The DPPH radical scavenging activity of the sample was evaluated following the protocol by Muangrod et al.[48] with slight modifications. Briefly, 190 µL of 0.1 mM DPPH was mixed with 10 µL of the sample or standard ascorbic acid in each well and incubated at room temperature in the dark for 30 min. The absorbance of the mixture was measured at 517 nm using a microplate reader (Rayto RT-2100 C, China). Ascorbic acid was used as the standard. Results were expressed as micrograms ascorbic acid equivalent (µg AAE g^−1).
# [2] = FRAP ferric ion-reducing antioxidant power assay; format: physicochemical; settings: peptide 100 µg/ml, 30 min in the dark, absorbance 593 nm, mean ± SD, n = 3
# Experimental: The ferric ion-reducing antioxidant power assay was analyzed according to the method by Rumpf et al.[47] with minor modifications. Briefly, the FRAP reagent was prepared from 300 mM sodium acetate (pH 3.6) and 10 mM TPTZ (2,4,6-tris (2-pyridyl)-s-triazine) in 40 mM HCl and 20 mM ferric chloride at the ratio of 10:1:1, respectively. Then, a 10 µL aliquot of the sample or standard was mixed with 190 µL of the FRAP reagent before incubating in the dark for 30 min. The absorbance was measured at 593 nm using a microplate reader (Rayto RT-2100 C, China). Ascorbic acid was used as the standard. Results were expressed as micrograms of ascorbic acid equivalent per gram (µg AAE g^−1).
# HepG2 cells = assay: MTT cell viability assay, HepG2; format: cell-based, human; settings: synthetic peptide 100 µg/ml, 24 h, mean ± SD, n = 3
# Experimental: as §1, §2, §3
# Vero cells = assay: MTT cell viability assay, Vero; format: cell-based, monkey; settings: synthetic peptide 100 µg/ml, 24 h, mean ± SD, n = 3
# Experimental: as §1, §2, §3
# [3] = ABTS radical scavenging assay; format: physicochemical; settings: peptide 100 µg/ml, 5 min in the dark, absorbance 750 nm, mean ± SD, n = 3
# Experimental: Radical scavenging antioxidant activity was determined according to the ABTS radical scavenging activity following the method described by Re et al.[46] with slight modifications. Briefly, the solution of ABTS radical was prepared from the reaction between 7 mM ABTS (2,2-azino-bis (3-ethylbenzothiazoline-6-sulphonic acid) diammonium salt) and 2.45 mM ammonium persulphate. The resulting ABTS solution was diluted with distilled water to achieve an optical density of 0.7 at 750 nm. Then, a sample or standard of 10 µL was mixed with 190 µL of ABTS solution and incubated for 5 min in the dark. The absorbance was measured at 750 nm by a microplate reader (Rayto RT-2100 C, China). Ascorbic acid was used as the standard.
# SiHa cells = assay: MTT cell viability assay, SiHa; format: cell-based, human; settings: synthetic peptide 100 µg/ml, 24 h, mean ± SD, n = 3
# Experimental: as §1, §2, §3
# [4] = test system: angiotensin-converting enzyme (ACE); assay: ACE inhibitory activity assay (HHL substrate); format: biochemical; settings: peptide 100 µg/ml, ACE 0.2 U/mL, 5 mM HHL, phosphate buffer pH 6.8, 37 °C, mean ± SD, n = 3; SD
# Experimental: The method utilized here is a spectrophotometric method based on the commonly used method introduced by Cushman and Cheung (1971)[45]. The 5 ul of sample was preincubated with 45 ul of ACE enzyme (0.2 U/mL) in 100 mM Phosphate buffer (pH 6.8) and incubated for 10 min at 37 °C. Enzyme activity was assayed by monitoring the hydrolysis of hippuryl-L-histidyl-L-leucine (HHL). After adding 50 µL of a 5 mM HHL substrate solution, the increase in absorbance at 405 nm was measured every minute for 15 min at 37 °C using a 96-well microplate reader. The initial velocity was determined from the linear portion of the curve, and the inhibitory activity was expressed as a percentage calculated using the following equation:
# % inhibition = (1-(B-b)/(A-a)) x 100,
# where A is an initial velocity of the control reaction with enzyme (control), a is an initial velocity of the control reaction without enzyme (control blank), B is an initial velocity of the enzyme reaction with sample and b is an initial velocity of the reaction with sample but without enzyme (sample blank).
# NCI-H460 cells = assay: MTT cell viability assay, NCI-H460; format: cell-based, human; settings: synthetic peptide 100 µg/ml, 24 h, mean ± SD
# Experimental: as §1, §2, §3
# SW620 cells = assay: MTT cell viability assay, SW620; format: cell-based, human; settings: synthetic peptide 100 µg/ml, 24 h, mean ± SD
# Experimental: as §1, §2, §3
Substance,"Inhibitory percentage, MCF-7 (MCF-7 cells) [%]","Inhibitory percentage, CaCO2 (CaCO2 cells) [%]","Antioxidant, DPPH [1]","Antioxidant, FRAP [2]","Inhibitory percentage, HepG2 (HepG2 cells) [%]","Inhibitory percentage, Vero (Vero cells) [%]","Antioxidant, ABTS [3]","Inhibitory percentage, SiHa (SiHa cells) [%]","Antihypertension (%), percentage inhibition of ACE [4] [%]","Inhibitory percentage, NCI-H460 (NCI-H460 cells; n = 3, SD) [%]","Inhibitory percentage, SW620 (SW620 cells; n = 3, SD) [%]","Inhibitory percentage, NCI-H460 (NCI-H460 cells; n = 3) [%]","Inhibitory percentage, SW620 (SW620 cells; n = 3) [%]"
RGSKQRQKRQW [RB-7],0,5.73±0.02,805.35±5.83 µg ascorbic acid equivalent,187.50±1.88 µg ascorbic acid equivalent,0,0,507.53±13.49 µg ascorbic acid equivalent,8.78±0.08,60.00±1.29,1.74±0.01,1.47±0.01,–,–
RRLRILL [RB-6],0,19.32±0.18,584.66±4.15 µg ascorbic acid equivalent,120.46±0.07 µg ascorbic acid equivalent,0,0,595.33±18.41 µg ascorbic acid equivalent,9.72±0.02,46.67±0.36,–,–,0,0
SPTPPKNVPF [RB-3],0,7.88±0.08,227.13±1.55 µg ascorbic acid equivalent,58.05±0.09 µg ascorbic acid equivalent,0,0,274.73±0.27 µg ascorbic acid equivalent,12.36±0.02,20.00±1.02,–,–,0,0
